Columns and labels:
PI3Kδ = PI3Kδ selectivity; format: biochemical
[1] = Ames test with and without S9; format: cell-based; conditions: with and without S9 activation
panel of 298 kinases = assay: Panel of 298 kinases (Invitrogen); format: biochemical; conditions: 298 kinases tested at 1 μM
DNA-PK = biological target: T1, DNA-PK (Homo sapiens, UniProt P78527); assay: DNA-PK inhibition (Invitrogen); format: biochemical
T1 construct: purchased Invitrogen

[2] = test system: interleukin-1 receptor-associated kinase 4 (IRAK1); assay: Kinase panel (Invitrogen) at 1 μM, IRAK1; format: biochemical
PI3Kβ = PI3Kβ selectivity; format: biochemical
PI3Kγ = PI3Kγ selectivity; format: biochemical
[3] = biological target: T2, cyclin-dependent kinase 9 (CDK9) (Homo sapiens, UniProt P50750); assay: Kinase panel (Invitrogen) at 1 μM, CDK9; format: biochemical
T2 construct: purchased Invitrogen
T2 sequence (P50750 whole entry): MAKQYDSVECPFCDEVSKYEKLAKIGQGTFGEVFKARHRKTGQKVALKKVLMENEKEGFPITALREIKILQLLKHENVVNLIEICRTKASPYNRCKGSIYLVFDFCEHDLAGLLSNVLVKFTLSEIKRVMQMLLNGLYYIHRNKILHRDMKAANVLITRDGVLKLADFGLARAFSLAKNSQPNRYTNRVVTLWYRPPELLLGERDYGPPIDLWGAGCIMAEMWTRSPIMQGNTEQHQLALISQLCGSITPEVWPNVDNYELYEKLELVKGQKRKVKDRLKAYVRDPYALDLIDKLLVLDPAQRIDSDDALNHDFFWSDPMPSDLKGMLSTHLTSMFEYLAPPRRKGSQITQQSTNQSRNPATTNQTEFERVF
T2 sequence (O60563 whole entry partner): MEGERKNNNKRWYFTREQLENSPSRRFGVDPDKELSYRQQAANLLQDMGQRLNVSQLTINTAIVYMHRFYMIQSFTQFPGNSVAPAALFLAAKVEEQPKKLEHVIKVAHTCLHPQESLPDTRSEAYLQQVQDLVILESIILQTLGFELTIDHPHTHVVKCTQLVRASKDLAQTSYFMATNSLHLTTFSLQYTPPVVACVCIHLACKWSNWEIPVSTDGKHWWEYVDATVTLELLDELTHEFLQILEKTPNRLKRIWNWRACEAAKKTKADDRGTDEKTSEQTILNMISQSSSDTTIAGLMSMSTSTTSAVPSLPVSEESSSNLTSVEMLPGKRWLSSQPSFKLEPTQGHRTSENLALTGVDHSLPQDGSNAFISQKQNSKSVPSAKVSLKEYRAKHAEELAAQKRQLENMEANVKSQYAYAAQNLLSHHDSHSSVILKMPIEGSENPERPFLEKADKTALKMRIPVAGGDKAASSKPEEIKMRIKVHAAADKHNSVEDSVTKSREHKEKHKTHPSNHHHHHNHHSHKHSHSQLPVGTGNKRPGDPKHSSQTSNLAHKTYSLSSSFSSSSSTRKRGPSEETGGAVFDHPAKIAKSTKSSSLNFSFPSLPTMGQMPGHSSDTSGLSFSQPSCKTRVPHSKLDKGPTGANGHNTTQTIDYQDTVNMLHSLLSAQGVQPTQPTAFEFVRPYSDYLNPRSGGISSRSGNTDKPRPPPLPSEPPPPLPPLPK

[4] = biological target: human ether-a-go-go (hERG) (Homo sapiens, UniProt Q12809); assay: hERG patch clamp; format: cell-based
Chain of human ether-a-go-go (hERG) (Q12809 whole entry): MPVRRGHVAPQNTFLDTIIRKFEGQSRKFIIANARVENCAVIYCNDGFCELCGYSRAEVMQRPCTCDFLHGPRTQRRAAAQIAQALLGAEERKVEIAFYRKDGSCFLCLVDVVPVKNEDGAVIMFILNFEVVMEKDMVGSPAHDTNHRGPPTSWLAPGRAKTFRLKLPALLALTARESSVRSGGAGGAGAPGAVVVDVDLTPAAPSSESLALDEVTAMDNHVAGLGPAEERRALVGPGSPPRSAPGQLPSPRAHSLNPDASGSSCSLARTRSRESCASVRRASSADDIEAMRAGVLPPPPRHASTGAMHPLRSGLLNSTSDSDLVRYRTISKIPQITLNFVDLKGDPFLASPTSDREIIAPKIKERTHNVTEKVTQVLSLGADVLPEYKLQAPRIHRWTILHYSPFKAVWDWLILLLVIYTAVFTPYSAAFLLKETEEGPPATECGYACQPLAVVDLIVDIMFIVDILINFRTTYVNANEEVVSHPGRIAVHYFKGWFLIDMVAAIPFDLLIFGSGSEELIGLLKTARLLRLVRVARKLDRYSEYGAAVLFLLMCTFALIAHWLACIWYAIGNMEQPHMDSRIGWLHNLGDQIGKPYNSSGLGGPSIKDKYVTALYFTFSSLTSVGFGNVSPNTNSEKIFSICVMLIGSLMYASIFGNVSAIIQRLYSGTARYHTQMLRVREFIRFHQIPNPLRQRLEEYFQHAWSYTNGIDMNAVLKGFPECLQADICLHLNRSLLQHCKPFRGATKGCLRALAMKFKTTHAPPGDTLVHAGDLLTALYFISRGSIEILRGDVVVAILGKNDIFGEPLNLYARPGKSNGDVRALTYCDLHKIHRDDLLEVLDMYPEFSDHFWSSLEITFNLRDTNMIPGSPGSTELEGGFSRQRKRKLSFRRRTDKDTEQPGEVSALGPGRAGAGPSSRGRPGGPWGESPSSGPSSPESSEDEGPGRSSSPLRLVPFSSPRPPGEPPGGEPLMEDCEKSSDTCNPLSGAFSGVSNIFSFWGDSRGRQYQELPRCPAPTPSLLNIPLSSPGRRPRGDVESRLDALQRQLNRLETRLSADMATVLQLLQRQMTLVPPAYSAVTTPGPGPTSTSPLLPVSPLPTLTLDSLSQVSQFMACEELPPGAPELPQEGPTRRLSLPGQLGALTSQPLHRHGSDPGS

[5] = test system: A549 lung carcinoma cell line xenograft; assay: Mouse xenograft model with A549 lung carcinoma cell line; format: in vivo
Method: Based on the improved rat PK for 14c, it was dosed at 2 and 6 mpk along with lead 1 at 30 mpk—in an effort to achieve similar in vivo exposure profiles—in a mouse xenograft model with the lung carcinoma cell line A549 (Figure 4). […] The 6 mpk dose of 14c reduced the tumor volume by more than 50%. Regrowth was included to assess a possible growth lag period, but as expected, tumor regrowth resumed following mTOR inhibitor withdrawal.[22]
All animal studies were conducted in accordance with Takeda California Institutional Animal Care and Use Committee guidelines in a facility accredited by the American Association for Accreditation of Laboratory Animal Care. Female Nu/Nu mice (Balb/c), approximately 28 days of age and weighing 20 to 23 grams were obtained from Harlan Laboratories. Immuno-compromised and/or inbred mice are used extensively for in vivo cancer research for detecting pharmacological capabilities induced by anti-cancer agents and therefore were chosen as the most appropriate animal model for this study. Five million A549 cells/animal (0.2 mL) w/ Matrigel were implanted S.C. into the right flank of Balb/c Nu/Nu mice.
Low passage A549 cells were grown in F12 media and supplied at a concentration of 50 million cells/mL in DPBS. Treatment was initiated when all study animals had small tumors averaging approximately 150-180 mg. Dosing solutions/suspensions were prepared every 5 days. Compound 1 was suspended in 30% Captisol in 0.05 M MSA pH ~1.5. Compound 14c was suspended in 0.5% MC. Dose solutions/suspensions were given orally at a dose volume of 5 mL/kg. […] The general health of the mice was monitored, and mortality was assessed daily. Tumor dimensions were recorded 2 times per week starting one day before the first day of treatment. Toxicity was assessed as net body weight loss and lethality. Tumor weights are calculated using the equation (a x b2)/2, where a and b refer to the larger and smaller dimensions collected at each measurement. Error bars in each plot of % tumor volume change vs. days of treatment were calculated as the standard error of the means. […]

[6] = biological target: T3, FRAP1 (mTOR) recombinant protein (Homo sapiens, UniProt P42345); assay: mTOR kinase inhibition assay (TR-FRET, GFP-4E-BP1); format: biochemical; conditions: enzyme
T3 construct: purchased Invitrogen (Carlsbad, CA, US)
T3 sequence (P42345 1360-2549 limits assumed): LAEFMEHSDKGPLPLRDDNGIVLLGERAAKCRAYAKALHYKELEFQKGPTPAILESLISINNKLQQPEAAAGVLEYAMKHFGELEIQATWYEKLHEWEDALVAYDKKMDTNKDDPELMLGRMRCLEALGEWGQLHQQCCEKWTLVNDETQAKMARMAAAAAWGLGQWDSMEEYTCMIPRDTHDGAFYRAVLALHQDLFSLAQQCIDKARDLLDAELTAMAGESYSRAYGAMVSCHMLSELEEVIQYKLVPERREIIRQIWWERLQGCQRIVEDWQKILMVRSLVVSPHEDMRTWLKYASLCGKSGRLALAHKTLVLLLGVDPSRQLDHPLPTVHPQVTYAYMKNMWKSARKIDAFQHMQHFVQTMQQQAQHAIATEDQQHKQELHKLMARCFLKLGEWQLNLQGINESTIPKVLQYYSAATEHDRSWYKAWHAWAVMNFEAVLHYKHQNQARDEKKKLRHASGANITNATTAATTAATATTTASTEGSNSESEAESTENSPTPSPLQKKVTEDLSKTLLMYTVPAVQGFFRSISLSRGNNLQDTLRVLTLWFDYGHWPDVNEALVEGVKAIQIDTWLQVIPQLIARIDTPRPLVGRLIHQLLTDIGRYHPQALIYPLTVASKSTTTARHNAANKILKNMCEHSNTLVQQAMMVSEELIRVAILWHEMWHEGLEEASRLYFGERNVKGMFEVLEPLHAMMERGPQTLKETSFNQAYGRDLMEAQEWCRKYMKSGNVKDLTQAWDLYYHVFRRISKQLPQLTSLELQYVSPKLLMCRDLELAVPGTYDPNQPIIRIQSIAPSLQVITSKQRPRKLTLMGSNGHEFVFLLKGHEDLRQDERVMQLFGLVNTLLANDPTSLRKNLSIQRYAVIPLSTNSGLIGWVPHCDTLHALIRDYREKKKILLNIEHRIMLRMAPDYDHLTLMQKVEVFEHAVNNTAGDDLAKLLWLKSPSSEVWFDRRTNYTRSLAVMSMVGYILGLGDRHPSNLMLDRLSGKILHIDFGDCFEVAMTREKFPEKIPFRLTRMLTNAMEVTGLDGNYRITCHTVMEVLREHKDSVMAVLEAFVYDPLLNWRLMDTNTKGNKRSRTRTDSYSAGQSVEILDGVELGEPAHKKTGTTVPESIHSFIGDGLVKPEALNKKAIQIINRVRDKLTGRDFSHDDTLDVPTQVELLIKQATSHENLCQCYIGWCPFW
Method: FRAP1 (mTOR) recombinant protein and GFP-4E-BP1 were purchased from Invitrogen (Carlsbad, CA, US).
The kinase activity assay was conducted in 50 mM Hepes buffer containing 10 mM MgCl2, 0.01% Brij, 0.2 mM EDTA, 2 mM DTT and 1% DMSO (after compound addition) at pH 7.3.
The IC50 value for each compound was determined in the presence of compound (various concentrations, from 0 to 10 μM) and a fixed amount of ATP (50 μM, final concentration), substrate GFP-4E-BP1 (400 nM, final concentration). The enzymatic reaction was initiated by adding FRAP1 (mTOR) (2 nM, final concentration). The assay was conducted at room temperature (~22 °C). After 30 min, the enzymatic reaction was stopped using Tb-anti-p4E-BP1 (2 nM final concentration, Invitrogen) and EDTA (20 mM final concentration, Sigma) in TR-FRET dilution buffer provided by Invitrogen. All the reagents were dispensed using a Multidrop Combi reagent dispenser (ThermoFisher Scientific, Waltham, […]
The release of product was detected using a BMG PHERAstar plate reader (BMG LABTECH, Ortenberg, Germany) and the Lantha Screen module (337 nm excitation wavelength) and measuring the ratio of fluorescence 520/490 nm (emission wavelengths). Experimental data was fitted using Eq. (1): […]

mouse xenograft models = assay: Mouse xenograft models (earlier efficacy of lead 1); format: in vivo; conditions: 10 and 30 mpk

SMILES	Selectivity against PI3Kδ (PI3Kδ)	Ames test [1]	Kinase panel selectivity (panel of 298 kinases)	inhibition at 1 µM (DNA-PK)	IRAK1 inhibition [2]	Selectivity against PI3Kβ (PI3Kβ)	Selectivity against PI3Kγ (PI3Kγ)	inhibition at 1 µM [3]	IC50 [4]	Tumor growth ([5]; 2 mpk po QD 14 days)	Tumor volume reduction ([5]; 6 mpk po QD 14 days)	IC50 [6]	In vivo efficacy (mouse xenograft models)	Tumor growth ([5]; 30 mpk po QD 14 days)
C[C@@]12COCCN1c1nc(-c3cccc4[nH]ccc34)ncc1N([C@H]1CC[C@H](O)CC1)C2=O [14c]	6 ×	negative	only two had inhibition >20%	13%	22%	180 ×	180 ×	34%	> 40000 nM	fully inhibited tumor growth	more than 50%			
CC(F)(F)CN1C(=O)[C@]2(C)COCCN2c2nc(-c3ccc(NC(=O)NC4CC4)cc3)ncc21 [compound 1]												12 nM	significant in vivo efficacy	fully inhibited tumor growth

From publication PMC10641921, “Optimization of mTOR Inhibitors Using Property-Based Drug Design and Free–Wilson Analysis for Improved In Vivo Efficacy” (ACS Medicinal Chemistry Letters, 2023)
